The text below walks through data of patent publication US9295673B2, “Combination of mTOR inhibitors and P13-kinase inhibitors, and uses thereof” (Intellikine LLC, priority 2011, dated 2016).

pIC50: −log10 of the molar value. Where two headings read alike, the source gives them in different places.

The target in one assay is T1, mTOR (Homo sapiens, UniProt P42345).
T1 construct: purchased Invitrogen
Nature of the assay: mTOR kinase inhibition assay (radiometric or LanthaScreen TR-FRET). The class given is biochemical. Conditions: read-out: mTORC IC50.

The target in a further assay is PI3K α (Homo sapiens, UniProt P42336). Briefly: PI 3-Kinase (human) HTRF assay, PI3K α.
PI3K α, sequence (P42336 whole entry): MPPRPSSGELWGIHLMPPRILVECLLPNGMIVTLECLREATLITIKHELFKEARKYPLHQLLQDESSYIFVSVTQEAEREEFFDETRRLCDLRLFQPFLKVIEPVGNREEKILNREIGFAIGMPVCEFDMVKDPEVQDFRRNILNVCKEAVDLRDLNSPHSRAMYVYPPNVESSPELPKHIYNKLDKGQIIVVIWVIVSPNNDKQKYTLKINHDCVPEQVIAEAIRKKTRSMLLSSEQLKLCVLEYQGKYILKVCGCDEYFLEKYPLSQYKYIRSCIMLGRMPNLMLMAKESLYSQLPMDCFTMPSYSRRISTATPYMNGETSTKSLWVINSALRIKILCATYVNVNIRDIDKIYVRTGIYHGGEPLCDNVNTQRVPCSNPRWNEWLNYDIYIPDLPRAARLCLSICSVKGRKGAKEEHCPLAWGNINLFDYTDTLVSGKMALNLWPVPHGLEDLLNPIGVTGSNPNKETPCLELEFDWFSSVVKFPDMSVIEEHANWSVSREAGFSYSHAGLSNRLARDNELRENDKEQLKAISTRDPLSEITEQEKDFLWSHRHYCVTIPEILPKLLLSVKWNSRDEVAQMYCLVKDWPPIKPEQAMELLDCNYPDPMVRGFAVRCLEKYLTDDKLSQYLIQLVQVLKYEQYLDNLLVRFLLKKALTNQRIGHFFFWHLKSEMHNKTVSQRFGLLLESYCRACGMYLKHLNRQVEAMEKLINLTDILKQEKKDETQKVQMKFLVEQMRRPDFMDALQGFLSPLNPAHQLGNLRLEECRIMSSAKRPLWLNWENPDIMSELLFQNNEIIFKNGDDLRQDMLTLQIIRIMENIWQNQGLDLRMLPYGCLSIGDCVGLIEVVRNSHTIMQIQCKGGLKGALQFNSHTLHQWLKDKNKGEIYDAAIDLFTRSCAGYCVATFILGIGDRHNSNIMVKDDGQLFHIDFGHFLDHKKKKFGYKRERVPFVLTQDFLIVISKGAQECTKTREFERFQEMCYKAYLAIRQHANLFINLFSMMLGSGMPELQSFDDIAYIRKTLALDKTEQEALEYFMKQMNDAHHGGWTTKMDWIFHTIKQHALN
PI3K α, sequence (P27986 whole entry partner): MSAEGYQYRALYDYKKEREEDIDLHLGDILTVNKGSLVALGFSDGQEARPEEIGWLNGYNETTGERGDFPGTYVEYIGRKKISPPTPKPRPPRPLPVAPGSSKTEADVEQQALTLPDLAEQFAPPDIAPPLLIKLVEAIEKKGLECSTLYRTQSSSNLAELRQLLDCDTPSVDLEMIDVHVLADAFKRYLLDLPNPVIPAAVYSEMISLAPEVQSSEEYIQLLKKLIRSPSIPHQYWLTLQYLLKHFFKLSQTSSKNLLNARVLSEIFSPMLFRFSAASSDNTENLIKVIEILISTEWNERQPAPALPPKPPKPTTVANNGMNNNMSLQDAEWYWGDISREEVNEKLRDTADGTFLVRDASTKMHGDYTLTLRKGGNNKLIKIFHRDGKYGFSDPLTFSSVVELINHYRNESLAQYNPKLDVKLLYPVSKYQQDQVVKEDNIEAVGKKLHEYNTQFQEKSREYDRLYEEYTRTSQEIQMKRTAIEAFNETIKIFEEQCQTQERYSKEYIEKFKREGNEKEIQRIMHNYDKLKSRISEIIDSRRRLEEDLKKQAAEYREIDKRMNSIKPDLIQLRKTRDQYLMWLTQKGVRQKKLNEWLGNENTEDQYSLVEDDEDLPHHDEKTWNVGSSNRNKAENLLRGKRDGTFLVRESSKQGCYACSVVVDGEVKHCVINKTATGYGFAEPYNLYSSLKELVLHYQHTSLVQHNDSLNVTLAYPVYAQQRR
The target in the next assay is PI3K β (Homo sapiens, UniProt P42338). Briefly: PI 3-Kinase (human) HTRF assay, PI3K β. Conditions: read-out: PI3K β IC50.
PI3K β, sequence (P42338 whole entry): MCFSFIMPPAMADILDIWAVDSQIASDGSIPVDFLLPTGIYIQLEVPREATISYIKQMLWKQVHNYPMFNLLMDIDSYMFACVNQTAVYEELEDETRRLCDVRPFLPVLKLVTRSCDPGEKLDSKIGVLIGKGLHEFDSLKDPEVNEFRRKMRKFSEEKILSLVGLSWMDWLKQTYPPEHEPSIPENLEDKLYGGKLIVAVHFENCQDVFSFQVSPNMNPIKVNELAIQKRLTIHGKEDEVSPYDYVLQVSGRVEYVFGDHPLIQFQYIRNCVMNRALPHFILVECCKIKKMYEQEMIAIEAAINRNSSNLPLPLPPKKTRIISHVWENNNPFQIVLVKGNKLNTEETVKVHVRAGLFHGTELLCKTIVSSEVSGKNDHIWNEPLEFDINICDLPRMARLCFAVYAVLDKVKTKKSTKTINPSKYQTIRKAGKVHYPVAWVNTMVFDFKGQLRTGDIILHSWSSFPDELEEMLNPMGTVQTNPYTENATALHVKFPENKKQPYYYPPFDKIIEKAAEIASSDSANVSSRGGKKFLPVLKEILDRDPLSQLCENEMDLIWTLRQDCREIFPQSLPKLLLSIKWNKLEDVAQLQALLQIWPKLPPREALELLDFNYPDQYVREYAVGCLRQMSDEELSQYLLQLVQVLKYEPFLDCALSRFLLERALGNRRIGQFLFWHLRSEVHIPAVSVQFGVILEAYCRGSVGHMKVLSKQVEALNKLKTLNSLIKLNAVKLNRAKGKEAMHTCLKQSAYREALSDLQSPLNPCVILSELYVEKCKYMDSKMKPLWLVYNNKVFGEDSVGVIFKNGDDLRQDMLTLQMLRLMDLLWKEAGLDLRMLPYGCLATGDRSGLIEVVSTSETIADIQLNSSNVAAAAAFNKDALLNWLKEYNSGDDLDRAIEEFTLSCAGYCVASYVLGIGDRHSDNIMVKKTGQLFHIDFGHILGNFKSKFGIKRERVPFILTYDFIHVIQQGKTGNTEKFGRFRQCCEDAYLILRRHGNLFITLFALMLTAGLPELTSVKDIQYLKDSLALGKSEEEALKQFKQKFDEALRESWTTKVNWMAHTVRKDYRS
PI3K β, sequence (P27986 whole entry partner): as the sequence (P27986 whole entry partner) above
The target in another assay is PI3K δ (Homo sapiens, UniProt O00329). Briefly: PI 3-Kinase (human) HTRF assay, PI3K δ.
PI3K δ, sequence (O00329 whole entry): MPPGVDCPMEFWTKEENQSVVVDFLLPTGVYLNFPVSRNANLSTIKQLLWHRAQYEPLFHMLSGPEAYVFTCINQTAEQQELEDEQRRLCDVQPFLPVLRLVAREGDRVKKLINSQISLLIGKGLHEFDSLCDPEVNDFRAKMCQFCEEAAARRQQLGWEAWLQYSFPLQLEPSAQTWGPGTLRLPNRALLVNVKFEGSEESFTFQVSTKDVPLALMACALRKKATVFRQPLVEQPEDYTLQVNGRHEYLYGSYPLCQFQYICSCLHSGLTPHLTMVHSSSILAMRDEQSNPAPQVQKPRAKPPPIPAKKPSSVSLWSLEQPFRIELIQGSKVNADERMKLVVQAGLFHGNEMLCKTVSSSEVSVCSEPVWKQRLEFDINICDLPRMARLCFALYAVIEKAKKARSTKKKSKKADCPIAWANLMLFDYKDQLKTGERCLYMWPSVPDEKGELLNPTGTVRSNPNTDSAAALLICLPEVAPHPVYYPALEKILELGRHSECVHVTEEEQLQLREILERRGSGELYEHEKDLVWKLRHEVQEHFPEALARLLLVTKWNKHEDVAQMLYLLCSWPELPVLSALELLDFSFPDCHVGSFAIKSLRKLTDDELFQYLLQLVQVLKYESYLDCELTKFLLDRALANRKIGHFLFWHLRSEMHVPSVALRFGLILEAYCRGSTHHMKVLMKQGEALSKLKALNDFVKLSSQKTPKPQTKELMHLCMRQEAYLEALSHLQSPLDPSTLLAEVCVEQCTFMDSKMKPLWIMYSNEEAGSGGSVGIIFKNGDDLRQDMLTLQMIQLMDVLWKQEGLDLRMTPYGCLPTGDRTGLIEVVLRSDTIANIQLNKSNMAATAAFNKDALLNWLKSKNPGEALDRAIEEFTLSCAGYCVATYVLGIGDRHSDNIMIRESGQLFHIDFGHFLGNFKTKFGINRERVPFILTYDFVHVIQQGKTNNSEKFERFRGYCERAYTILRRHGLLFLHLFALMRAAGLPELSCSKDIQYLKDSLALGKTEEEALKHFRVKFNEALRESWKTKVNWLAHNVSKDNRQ
PI3K δ, sequence (P27986 whole entry partner): as the sequence (P27986 whole entry partner) above
The next assay addresses PI3K γ (Homo sapiens, UniProt P48736). Nature of the assay: PI 3-Kinase (human) HTRF assay, PI3K γ. The conditions noted are these: read-out: PI3K γ IC50.

PI3K γ, sequence (P48736 whole entry): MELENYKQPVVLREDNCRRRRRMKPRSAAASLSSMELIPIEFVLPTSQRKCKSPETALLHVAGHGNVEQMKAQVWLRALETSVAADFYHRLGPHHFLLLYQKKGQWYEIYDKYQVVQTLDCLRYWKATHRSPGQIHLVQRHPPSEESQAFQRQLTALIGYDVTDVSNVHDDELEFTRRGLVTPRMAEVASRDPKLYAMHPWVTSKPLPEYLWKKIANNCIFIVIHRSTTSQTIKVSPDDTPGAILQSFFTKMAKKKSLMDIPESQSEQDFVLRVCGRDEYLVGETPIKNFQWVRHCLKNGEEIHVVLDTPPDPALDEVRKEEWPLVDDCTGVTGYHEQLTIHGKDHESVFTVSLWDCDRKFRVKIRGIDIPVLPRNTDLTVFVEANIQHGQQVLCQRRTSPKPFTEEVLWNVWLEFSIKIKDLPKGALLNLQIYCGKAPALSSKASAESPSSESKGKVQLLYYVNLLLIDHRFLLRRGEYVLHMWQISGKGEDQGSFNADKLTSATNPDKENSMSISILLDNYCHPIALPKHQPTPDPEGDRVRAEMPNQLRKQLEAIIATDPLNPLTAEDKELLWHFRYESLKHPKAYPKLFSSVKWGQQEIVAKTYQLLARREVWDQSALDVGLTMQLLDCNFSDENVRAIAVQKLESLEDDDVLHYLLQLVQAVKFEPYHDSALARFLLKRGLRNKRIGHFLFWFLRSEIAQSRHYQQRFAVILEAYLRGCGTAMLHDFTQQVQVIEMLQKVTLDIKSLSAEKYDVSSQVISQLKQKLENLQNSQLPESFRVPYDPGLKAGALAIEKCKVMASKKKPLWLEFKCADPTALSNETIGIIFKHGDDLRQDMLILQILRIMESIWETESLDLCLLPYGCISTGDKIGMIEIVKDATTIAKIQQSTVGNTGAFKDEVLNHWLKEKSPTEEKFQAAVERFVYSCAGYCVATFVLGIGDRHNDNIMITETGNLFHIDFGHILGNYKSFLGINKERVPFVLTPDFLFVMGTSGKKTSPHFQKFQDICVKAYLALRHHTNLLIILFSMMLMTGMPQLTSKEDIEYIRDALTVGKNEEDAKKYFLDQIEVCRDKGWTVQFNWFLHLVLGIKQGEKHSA
Method for mTOR: The compounds described herein can be tested against recombinant mTOR (Invitrogen) in an assay containing 50 mM HEPES, pH 7.5, 1 mM EGTA, 10 mM MgCl2, 2.5 mM, 0.01% Tween, 10 μM ATP (2.5 μCi of μ-32P-ATP), and 3 mg/mL BSA. Rat recombinant PHAS-1/4EBP1 (Calbiochem; 2 mg/mL) is used as a substrate. Reactions are terminated by spotting onto nitrocellulose, which is washed with 1M NaC1/1% phosphoric acid (approximately 6 times, 5-10 minutes each). Sheets are dried and the transferred radioactivity quantitated by phosphorimaging.
For instance, one can use Invitrogen's LanthaScreen™ Kinase assay to test the inhibitors of mTOR disclosed herein. This assay is a time resolved FRET platform that measures the phosphorylation of GFP labeled 4EBP1 by mTOR kinase. The kinase reaction is performed in a white 384 well microtitre plate. The total reaction volume is 20 ul per well and the reaction buffer composition is 50 mM HEPES pH7.5, 0.01% Polysorbate 20, 1 mM EGTA, 10 mM MnCl2, and 2 mM DTT. In the first step, each well receives 2 ul of test compound in 20% dimethylsulphoxide resulting in a 2% DMSO final concentration. […] The plate is sealed and incubated for 1 hour at room temperature. […] The plate is sealed, incubated for 1 hour at room temperature, and then read on a plate reader set up for LanthaScreen™ TR-FRET. Data is analyzed and IC50s are generated using GraphPad Prism 5.

For `CCOC(=O)Cn1nc(-c2cc3cc(O)ccc3[nH]2)c2c(N)ncnc21` [Compound 28], the pIC50 is above 6.30 at mTOR (Table 2), below 6.30 on PI3K α (read-out: PI3K α IC50), below 6.30 at PI3K β (Table 2) and below 6.30 at PI3K δ (read-out: PI3K δ IC50).
As to `CC(=O)N1CCC(n2nc(-c3cc4cc(O)ccc4[nH]3)c3c(N)ncnc32)CC1` [Compound 30], the pIC50 was above 7.60 on mTOR (Table 2); below 6.30 at PI3K α (read-out: PI3K α IC50); below 6.30 on PI3K β (Table 2); below 6.30 on PI3K δ (read-out: PI3K δ IC50, Table 2).
As for `Nc1ncnc2c1c(-c1cc3cc(O)ccc3[nH]1)nn2C1CCN(C(=O)C2CC2)CC1` [Compound 31], the pIC50 at mTOR (Table 2) is above 7.60; at PI3K α (read-out: PI3K α IC50), below 6.30; at PI3K β (Table 2) it was below 6.30; on PI3K δ (read-out: PI3K δ IC50, Table 2), 6.30 to 7.00.
Turning to `CC(C)n1nc(-c2cc3cc(O)c(Cl)cc3[nH]2)c2c(N)ncnc21` [Compound 32], the pIC50 on mTOR (Table 2) is above 6.30; at PI3K α (read-out: PI3K α IC50) it was below 6.30; on PI3K γ (Table 2), below 6.30; at PI3K δ (read-out: PI3K δ IC50), below 6.30.
Regarding `Nc1ncnc2c1c(-c1cc3cc(O)ccc3[nH]1)nn2CCN1CCOCC1` [Compound 33], the pIC50 at mTOR (Table 2) is above 6.30; at PI3K α (read-out: PI3K α IC50, Table 2), below 6.30; on PI3K γ (Table 2), below 6.30; at PI3K δ (read-out: PI3K δ IC50, Table 2) it was below 6.30.
Turning to `Nc1ncnc2c1c(-c1cc3cc(O)ccc3[nH]1)nn2CC(=O)N1CCOCC1` [Compound 34], the pIC50 at mTOR (Table 2), on PI3K α (read-out: PI3K α IC50), at PI3K γ and at PI3K δ (read-out: PI3K δ IC50) was below 6.30 in each case.
With `CNC(=O)Cn1nc(-c2cc3cc(O)ccc3[nH]2)c2c(N)ncnc21` [Compound 35], the pIC50 at mTOR (Table 2), on PI3K α (read-out: PI3K α IC50), on PI3K γ (Table 2) and at PI3K δ (read-out: PI3K δ IC50) was below 6.30 throughout.
`Nc1ncnc2c1c(-c1cc3cccc(O)c3[nH]1)nn2C1CCCC1` [Compound 36]: the pIC50 was above 8.00 on mTOR (Table 2); below 6.30 on PI3K α (read-out: PI3K α IC50, Table 2); 7.00 to 7.30 on PI3K γ (Table 2); 6.30 to 7.00 at PI3K δ (read-out: PI3K δ IC50, Table 2).
In the case of `Nc1ncnc2c1c(-c1cc3cc(O)ccc3[nH]1)nn2Cc1cccnc1` [Compound 38], the pIC50 was above 6.30 at mTOR (Table 2); below 6.30 on PI3K α (read-out: PI3K α IC50, Table 2); below 6.30 on PI3K γ; below 6.30 at PI3K δ (read-out: PI3K δ IC50, Table 2).
As for `CC(C)n1nc(-c2cc3c(Cl)ccc(O)c3[nH]2)c2c(N)ncnc21` [Compound 39], the pIC50 is above 8.00 at mTOR (Table 2); below 6.30 on PI3K α (read-out: PI3K α IC50, Table 2); below 6.30 on PI3K γ; below 6.30 on PI3K δ (read-out: PI3K δ IC50, Table 2).
Take `COCCn1nc(-c2cc3cc(O)ccc3[nH]2)c2c(N)ncnc21` [Compound 40]: the pIC50 was above 7.00 on mTOR (Table 2); below 6.30 at PI3K α (read-out: PI3K α IC50, Table 2); below 6.30 on PI3K γ (Table 2); below 6.30 on PI3K δ (read-out: PI3K δ IC50).
Take `Nc1ncnc2c1c(-c1cc3cc(O)ccc3[nH]1)nn2C1CCOCC1` [Compound 42]: the pIC50 on mTOR (Table 2) is above 8.30; on PI3K α (read-out: PI3K α IC50), below 6.30; on PI3K β (Table 2), below 6.30; at PI3K δ (read-out: PI3K δ IC50) it was 7.00 to 7.30.
As to `CNC(=O)CCn1nc(-c2cc3cc(O)ccc3[nH]2)c2c(N)ncnc21` [Compound 43], the pIC50 is below 6.30 on mTOR (Table 2); below 6.30 on PI3K α (read-out: PI3K α IC50); below 6.30 at PI3K β (Table 2); below 6.30 on PI3K δ (read-out: PI3K δ IC50, Table 2).
Take `Cc1nccn1CCn1nc(-c2cc3cc(O)ccc3[nH]2)c2c(N)ncnc21` [Compound 44]: the pIC50 at mTOR (Table 2) was above 7.00; at PI3K α (read-out: PI3K α IC50, Table 2), below 6.30; on PI3K β (Table 2), below 6.30; on PI3K δ (read-out: PI3K δ IC50) it was below 6.30.
On to `CC(C)n1nc(-c2cc3cc(O)ccc3[nH]2)c2c(N)nccc21` [Compound 45], for which the pIC50 at mTOR (Table 2) is below 6.30.
For `Nc1ncnc2c1c(-c1cc3cc(O)ccc3[nH]1)nn2C1CC(=O)C1` [Compound 53], the pIC50 at mTOR (Table 2) is above 7.00; at PI3K α (read-out: PI3K α IC50), below 6.30; at PI3K γ (Table 2), below 6.30; on PI3K β (Table 2), below 6.30.
With `Nc1ncnc2c1c(-c1cc3cc(O)ccc3[nH]1)nn2C1CC(O)C1` (stereo not shown) [Compound 54], the pIC50 on mTOR (Table 2) is above 7.60; on PI3K α (read-out: PI3K α IC50, Table 2), below 6.30; at PI3K γ (Table 2), below 6.30; at PI3K β (Table 2), below 6.30.
As to `CC(C)N1CCC(n2nc(-c3cc4cc(O)ccc4[nH]3)c3c(N)ncnc32)CC1` [Compound 55], the pIC50 on mTOR (Table 2) is above 6.30; at PI3K α (read-out: PI3K α IC50, Table 2), below 6.30; on PI3K γ (Table 2) it was below 6.30; at PI3K β (Table 2), below 6.30.
On to `CC(C)N1CCC(n2nc(-c3cc4cc(O)cc(Cl)c4[nH]3)c3c(N)ncnc32)CC1` [Compound 56], for which the pIC50 at mTOR (Table 2), at PI3K α (read-out: PI3K α IC50), at PI3K γ (Table 2) and at PI3K β (Table 2) was below 6.30 in each case.
Consider `Nc1ncnc2c1c(-c1cc3cc(O)ccc3[nH]1)nn2C1CCC(N2CCOCC2)CC1` (stereo not shown) [Compound 57], for which the pIC50 is above 7.60 on mTOR (Table 2); below 6.30 at PI3K α (read-out: PI3K α IC50, Table 2); below 6.30 on PI3K γ (Table 2); below 6.30 at PI3K β (Table 2).
As to `CN1CCN(C2CCC(n3nc(-c4cc5cc(O)ccc5[nH]4)c4c(N)ncnc43)CC2)CC1` (stereo not shown) [Compound 58], the pIC50 at mTOR (Table 2), at PI3K α (read-out: PI3K α IC50), on PI3K γ (Table 2) and on PI3K β (Table 2) was below 6.30 each time.
Take `COc1ccc2cc(-c3nn(C4CCOCC4)c4ncnc(N)c34)[nH]c2c1` [Compound 59]: the pIC50 on mTOR (Table 2) was below 6.30; at PI3K α (read-out: PI3K α IC50, Table 2) it was below 6.30; at PI3K γ (Table 2) it was below 6.30; at PI3K β (Table 2), below 6.30.
Take `Nc1ncnc2c1c(-c1cc3ccc(O)cc3[nH]1)nn2C1CCOCC1` [Compound 60]: the pIC50 on mTOR (Table 2) was above 7.00; at PI3K α (read-out: PI3K α IC50, Table 2) it was below 6.30; on PI3K γ (Table 2) it was 7.00 to 7.30; on PI3K β (Table 2), below 6.30.
For `Nc1nc2cc(-c3ccc4ncc(C(=O)NC5CCC(O)CC5)n4c3)ccc2o1` (stereo not shown) [Compound 143], the pIC50 is below 5.00 at mTOR, above 7.00 on PI3K γ and above 5.00 at PI3K β.
On to `CC(C)[C@@H](N)C(=O)N1CCN(c2cnc3ccc(-c4ccc5oc(N)nc5c4)cc3n2)CC1` [Compound 270], for which the pIC50 at mTOR was above 5.00; on PI3K α (read-out: PI3K α IC50), above 7.00; at PI3K β, above 6.00; at PI3K δ (read-out: PI3K δ IC50) it was above 6.00.
Regarding `O=C(c1cnc2ccc(-c3ccnc4[nH]ncc34)cn12)N1CCOCC1` [Compound 532], the pIC50 at mTOR (in vitro) was below 5.00; on PI3K α (read-out: PI3K α IC50, in vitro) it was above 5.00.
`CN1CC2CN(C(=O)c3cnc4ccc(-c5ccc6oc(N)nc6c5)cn34)CC2C1` (stereo not shown) [Compound 533]: the pIC50 at mTOR (in vitro) was below 5.00.
Regarding `Cc1ncc(-c2ccc3ncc(C(=O)N4C5CCC4COC5)n3c2)c2cn[nH]c12` [Compound 538], the figures for the negative-log IC50 (pIC50) at mTOR (in vitro) and on PI3K δ (read-out: PI3K δ IC50) were below 5.00 and above 5.00, respectively.
On to `C[C@@H]1CN(c2cnc3ccc(-c4ccc5oc(N)nc5c4)nc3c2)CCN1` [Compound 599], for which the pIC50 on mTOR (Table 4) was below 5.00; on PI3K γ (Table 4) it was above 5.00; on PI3K δ (read-out: PI3K δ IC50), above 5.00.
In the case of `C[C@H]1CN(C2CN(c3cnc4ccc(-c5ccc6oc(N)nc6c5)nc4c3)C2)CCN1C` [Compound 606], the pIC50 at mTOR (Table 4) was below 5.00; against PI3K α it was above 7.00; at PI3K δ it was above 6.00.
On to `C[C@@H]1CN(C2CN(c3cnc4ccc(-c5ccc6oc(N)nc6c5)nc4c3)C2)CCN1` [Compound 607], for which the pIC50 is below 5.00 at mTOR (Table 4) and above 5.00 on PI3K β (Table 4).
For `C[C@@H]1CN(C2CN(c3cnc4ccc(-c5ccc6oc(N)nc6c5)nc4c3)C2)CCN1C` [Compound 608], the figures for the pIC50 on mTOR (Table 4), at PI3K γ (Table 4) and on PI3K β (Table 4) were below 5.00, above 5.00 and above 5.00, respectively.
